How the values were obtained:
Type in all cases: in vivo
Conditions in all cases: treatment dosage 80 g/ha
wheat [1] = assay: Test Example 4: foliar treatment, effect on crop; e: wheat
How it was run: (§1)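 Seeds are spot-sown into sterilized diluvial soil and covered with about 1.5 cm of soil. After 14 days' greenhouse growth at 25 to 30° C, plants are sprayed on stems and leaves with diluted emulsion at the stated g/ha rate, then scored at 3 weeks.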

Italian ryegrass [2] = assay: Test Example 3: weedkilling efficacy through soil treatment; I: Italian ryegrass
How it was run: (§2)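 Crop and weed responses were judged three weeks after a uniform surface spray of the water-diluted emulsion at the given g/ha rate. Seeds sat beneath about 1.5 cm of sterilized diluvial soil, and boxes stood in a greenhouse at 25 to 30° C.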

black-grass [3] = assay: Test Example 3: weedkilling efficacy through soil treatment; H: black-grass
How it was run: as §2

rapeseed [4] = assay: Test Example 3: soil treatment, effect on crop; g: rapeseed
How it was run: as §2

rapeseed [5] = assay: Test Example 4: foliar treatment, effect on crop; g: rapeseed
Experimental: (§3) Testing of Weedkilling Efficacy by Foliar Treatment
(§4) Sterilized diluvial soil was introduced into 21 cm long, 13 cm wide, 7 cm deep plastic boxes, and seeds of crabgrass, green foxtail, barnyard grass, wild oat, black-grass, Italian ryegrass, common wind-grass, Indian mallow, redroot pigweed, fig-leafed goosefoot, chickweed, catchweed, birds-eye speedwell, corn, soybean, rice, wheat, beet and rapeseed were each spot-sown, and covered with about 1.5 cm of soil, then the plants were grown in a greenhouse at 25 to 30° C.
(§5) After they had grown for 14 days, emulsions of compounds of the present invention prepared according to compounding example 2 were diluted with water to give the specified dosages, and applied uniformly onto the stem and leaf parts with a small sprayer. 3 weeks after the pesticide treatment the effect on each type of plant was investigated on the basis of the assessment criteria of test example 1.
(§6) A: barnyard grass, B: bulrush, C: oval-leafed pondweed, D: crabgrass, E: green foxtail, F: barnyard grass, G: wild oat, H: black-grass, I: Italian ryegrass, J: common wind-grass, K: Indian mallow, L: redroot pigweed, M: fig-leafed goosefoot, N: chickweed, O: catchweed, p: birds-eye speedwell, a: transplanted rice, b: directly sown rice, c: corn, d: soybean, e: wheat, f: beet, g: rapeseed
(§7) Further, pesticide dosage (g/ha) indicates the concentration regulated such that treatment was with only the stated number of grams (g), when calculated per hectare (ha).

common wind-grass [6] = assay: Test Example 3: weedkilling efficacy through soil treatment; J: common wind-grass
How it was run: as §2

wheat [7] = assay: Test Example 3: soil treatment, effect on crop; e: wheat
How it was run: as §2

black-grass [8] = assay: Test Example 4: weedkilling efficacy by foliar treatment; H: black-grass
How it was run: as §1

common wind-grass [9] = assay: Test Example 4: weedkilling efficacy by foliar treatment; J: common wind-grass
Experimental: as §3, §4, §5, §6, §7

Italian ryegrass [10] = assay: Test Example 4: weedkilling efficacy by foliar treatment; I: Italian ryegrass
How it was run: as §1

## CC1=C(c2ccccc2)C(=O)N(C(C)(C)C(=O)Nc2cc(Cl)ccn2)CO1 [B-2-28]
Wheat [1]
  e (wheat) effect on crop grade: 0 (weed kill ratio 5% or less (practically no effect))
Italian ryegrass [2]
  I (Italian ryegrass) weedkilling efficacy grade: 5 (weed kill ratio 90% or more, (practically complete withering))
black-grass [3]
  H (black-grass) weedkilling efficacy grade: 5 (weed kill ratio 90% or more, (practically complete withering))
Rapeseed [4]
  g (rapeseed) effect on crop grade: 0 (weed kill ratio 5% or less (practically no effect))
Rapeseed [5]
  g (rapeseed) effect on crop grade: 3 (weed kill ratio 40% or more, less than 70%)
Common wind-grass [6]
  J (common wind-grass) weedkilling efficacy grade: 5 (weed kill ratio 90% or more, (practically complete withering))
Wheat [7]
  e (wheat) effect on crop grade: 0 (weed kill ratio 5% or less (practically no effect))
black-grass [8]
  H (black-grass) weedkilling efficacy grade: 5 (weed kill ratio 90% or more, (practically complete withering))
Common wind-grass [9]
  J (common wind-grass) weedkilling efficacy grade: 5 (weed kill ratio 90% or more, (practically complete withering))
Italian ryegrass [10]
  I (Italian ryegrass) weedkilling efficacy grade: 5 (weed kill ratio 90% or more, (practically complete withering))

## CC1=C(c2ccccc2)C(=O)N(C(C)(C)C(=O)Nc2cc(C)ccn2)CO1 [B-2-52]
Wheat [1]
  e (wheat) effect on crop grade: 0 (weed kill ratio 5% or less (practically no effect))
Italian ryegrass [2]
  I (Italian ryegrass) weedkilling efficacy grade: 5 (weed kill ratio 90% or more, (practically complete withering))
black-grass [3]
  H (black-grass) weedkilling efficacy grade: 4 (weed kill ratio 70% or more, less than 90%)
Rapeseed [4]
  g (rapeseed) effect on crop grade: 1 (weed kill ratio 5% or more, less than 20%)
Rapeseed [5]
  g (rapeseed) effect on crop grade: 0 (weed kill ratio 5% or less (practically no effect))
Common wind-grass [6]
  J (common wind-grass) weedkilling efficacy grade: 5 (weed kill ratio 90% or more, (practically complete withering))
Wheat [7]
  e (wheat) effect on crop grade: 0 (weed kill ratio 5% or less (practically no effect))
black-grass [8]
  H (black-grass) weedkilling efficacy grade: 2 (weed kill ratio 20% or more, less than 40%)
Common wind-grass [9]
  J (common wind-grass) weedkilling efficacy grade: 5 (weed kill ratio 90% or more, (practically complete withering))
Italian ryegrass [10]
  I (Italian ryegrass) weedkilling efficacy grade: 3 (weed kill ratio 40% or more, less than 70%)

Reference: patent US9738634B2, “Heterocyclic amide compound and herbicide” (SYNGENTA PARTICIPATIONS AG, priority 2013, dated 2017)
